Target: T1, human mAChR M1 (Homo sapiens, UniProt P11229)
T1 sequence (P11229 1-460): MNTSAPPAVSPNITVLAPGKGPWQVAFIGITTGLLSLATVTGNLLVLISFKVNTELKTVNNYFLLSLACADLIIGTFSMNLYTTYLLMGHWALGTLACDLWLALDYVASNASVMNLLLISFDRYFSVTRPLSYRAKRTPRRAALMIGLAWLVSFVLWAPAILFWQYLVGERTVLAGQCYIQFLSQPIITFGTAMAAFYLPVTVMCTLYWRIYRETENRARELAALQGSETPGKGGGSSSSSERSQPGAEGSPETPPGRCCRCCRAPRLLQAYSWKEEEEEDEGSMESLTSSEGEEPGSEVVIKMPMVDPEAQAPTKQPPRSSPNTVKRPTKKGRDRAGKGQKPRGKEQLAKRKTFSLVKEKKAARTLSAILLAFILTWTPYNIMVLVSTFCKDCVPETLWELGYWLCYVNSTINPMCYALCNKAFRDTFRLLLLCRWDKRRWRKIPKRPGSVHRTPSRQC
Assay: mAChR M1 cell-based functional assay (calcium mobilization, PAM activity)
Conditions: CHO-K1 cells expressing hM1, calcium flux (Fluo-4); for EC50: concentration-dependent increase in the EC20 acetylcholine response; for Emax: potentiation of EC20 acetylcholine response
From the text: Chinese hamster ovary (CHO-K1) cells stably expressing rat (r)M1 were purchased from the American Type Culture Collection and cultured according to their indicated protocol. CHO cells stably expressing human (h)M2, hM3, and hM5 were described previously (Levey, et al., 1991); hM1 and hM4 cDNAs were purchased from Missouri S&T cDNA Resource; rM4 cDNA was provided by T. I. Bonner (National Institutes of Health, Bethesda, Md.). rM2 and rM3 were cloned from a rat brain cDNA library and sequence verified. hM1, rM2, rM3, hM4, and rM4 cDNAs were used to stably transfect CHO-K1 cells purchased from the American Type Culture Collection using Lipofectamine 2000. To make stable rM2, hM2, rM3, hM4, and rM4 cell lines for use in calcium mobilization assays, these cells also were stably transfected with a chimeric G-protein (Gqi5) (provided by B. R. Conklin, University of California, San Francisco) using Lipofectamine 2000. rM1, hM1, rM3, hM3, rM5, and hM5 cells were grown in Ham's F-12 medium containing 10% heat-inactivated fetal bovine serum (FBS), 20 mM HEPES, and 50 μg/mL G418 sulfate. rM2-Gqi5, hM2-Gqi5, and hM4-Gqi5 cells were grown in the same medium also containing 500 μg/mL Hygromycin B. Stable rM4-Gqi5 cells were grown in DMEM containing 10% heat-inactivated FBS, 20 mM HEPES, 400 μg/mL G418 sulfate, and 500 μg/mL Hygromycin B.
For high throughput measurement of agonist-evoked increases in intracellular calcium, CHO-K1 cells stably expressing muscarinic receptors were plated in growth medium lacking G418 and hygromycin at 15,000 cells/20 μL/well in Greiner 384-well black-walled, tissue culture (TC)-treated, clear-bottom plates (VWR). Cells were incubated overnight at 37° C. and 5% CO2. The next day, cells were washed using an ELX 405 (BioTek) with four washes (80 μL) of assay buffer then aspirated to 20 μL. Next, 20 μL of 16 μM Fluo-4/acetoxymethyl ester (Invitrogen, Carlsbad, Calif.) prepared as a 2.3 mM stock in DMSO and mixed in a 1:1 ratio with 10% (w/v) Pluronic F-127 and diluted in assay buffer was added to the wells and the cell plates were incubated for 50 min at 37° C. and 5% CO2. Dye was removed by washing with the ELX 405 (four 80 μL washes of assay buffer) then aspirated to 20 μL. Compound master plates were formatted in an 11 point CRC format (1:3 dilutions) in 100% DMSO with a starting concentration of 10 mM using the BRAVO liquid handler (Agilent). Test compound CRCs were then transferred to daughter plates (240 nL) using the Echo acoustic plate reformatter (Labcyte, Sunnyvale, Calif.) and then diluted into assay buffer (40 μL) to a 2× stock using a Thermo Fisher Combi (Thermo Fisher Scientific, Waltham, Mass.).
Calcium flux was measured using the Functional Drug Screening System (FDSS) 6000 (Hamamatsu Corporation, Tokyo, Japan) as an increase in the fluorescent static ratio. Compounds were applied to cells (20 μL, 2×) using the automated system of the FDSS 6000 at 4 s into the 300 s protocol and the data were collected at 1 Hz. At 144 s into the 300s protocol, 10 μL of an EC20 concentration of the muscarinic receptor agonist acetylcholine was added (5×), followed by the addition of 12 μL an EC80 concentration of acetylcholine at the 230 s time point (5×). Agonist activity was analyzed as a concentration-dependent increase in calcium mobilization upon compound addition. Emax values for agonist activity are expressed relative to the maximum for acetylcholine. Positive allosteric modulator activity was analyzed as a concentration-dependent increase in the EC20 acetylcholine response. Antagonist activity was analyzed as a concentration-dependent decrease in the EC80 acetylcholine response. Concentration-response curves were generated using a four-parameter logistical equation in XLfit curve fitting software (IDBS, Bridgewater, N.J.) for Excel (Microsoft, Redmond, Wash.) or Prism (GraphPad Software, Inc., San Diego, Calif.). […]

| EC50 [nM] | Emax [%] | SMILES |
| --- | --- | --- |
| 751 | 58 | Cn1cc(-c2cc(F)c(Cc3cc(C(=O)N[C@H]4CCCC[C@@H]4O)c4nccn4c3)c(F)c2)cn1 [compound 40, 6-[[2,6-difluoro-4-(1-methylpyrazol-4-yl)phenyl]methyl]-N-[(1S,2S)-2-hydroxycyclohexyl]imidazo[1,2-a]pyridine-8-carboxamide] |
| 1200 | 76 | Cn1ccc(-c2cc(F)c(Cc3cc(C(=O)N[C@H]4CCOC[C@@H]4O)c4ncnn4c3)c(F)c2)n1 [compound 41, 6-[[2,6-difluoro-4-(1-methylpyrazol-3-yl)phenyl]methyl]-N-[(3R,4S)-3-hydroxytetrahydropyran-4-yl]-[1,2,4]triazolo[1,5-a]pyridine-8-carboxamide] |
| 936 | 83 | Cn1ccc(-c2cc(F)c(Cc3cc(C(=O)N[C@H]4CCCC[C@@H]4O)c4ncnn4c3)c(F)c2)n1 [compound 42, 6-[[2,6-difluoro-4-(1-methylpyrazol-3-yl)phenyl]methyl]-N-[(1S,2S)-2-hydroxycyclohexyl]-[1,2,4]triazolo[1,5-a]pyridine-8-carboxamide] |
| 691 | 84 | Cn1cc(-c2cc(F)c(Cc3cc(C(=O)N[C@H]4CCOC[C@@H]4O)c4ncnn4c3)c(F)c2)cn1 [compound 43, 6-[[2,6-difluoro-4-(1-methylpyrazol-4-yl)phenyl]methyl]-N-[(3R,4S)-3-hydroxytetrahydropyran-4-yl]-[1,2,4]triazolo[1,5-a]pyridine-8-carboxamide] |
| 387 | 82 | Cn1cc(-c2cc(F)c(Cc3cc(C(=O)N[C@H]4CCCC[C@@H]4O)c4ncnn4c3)c(F)c2)cn1 [compound 44, 6-[[2,6-difluoro-4-(1-methylpyrazol-4-yl)phenyl]methyl]-N-[(1S,2S)-2-hydroxycyclohexyl]-[1,2,4]triazolo[1,5-a]pyridine-8-carboxamide] |
| 693 | 82 | Cn1ccc(-c2ccc(Cc3cc(C(=O)N[C@H]4CCOC[C@@H]4O)c4ncnn4c3)c(F)c2)n1 [compound 45, 6-[[2-fluoro-4-(1-methylpyrazol-3-yl)phenyl]methyl]-N-[(3R,4S)-3-hydroxytetrahydropyran-4-yl]-[1,2,4]triazolo[1,5-a]pyridine-8-carboxamide] |
| 742 | 79 | Cn1ccc(-c2ccc(Cc3cc(C(=O)N[C@H]4CCCC[C@@H]4O)c4ncnn4c3)c(F)c2)n1 [compound 46, 6-[[2-fluoro-4-(1-methylpyrazol-3-yl)phenyl]methyl]-N-[(1S,2S)-2-hydroxycyclohexyl]-[1,2,4]triazolo[1,5-a]pyridine-8-carboxamide] |
| 404 | 77 | Cn1cc(-c2ccc(Cc3cc(C(=O)N[C@H]4CCOC[C@@H]4O)c4ncnn4c3)c(F)c2)cn1 [compound 47, 6-[[2-fluoro-4-(1-methylpyrazol-4-yl)phenyl]methyl]-N-[(3R,4S)-3-hydroxytetrahydropyran-4-yl]-[1,2,4]triazolo[1,5-a]pyridine-8-carboxamide] |
| 229 | 76 | Cn1cc(-c2ccc(Cc3cc(C(=O)N[C@H]4CCCC[C@@H]4O)c4ncnn4c3)c(F)c2)cn1 [compound 48, 6-[[2-fluoro-4-(1-methylpyrazol-4-yl)phenyl]methyl]-N-[(1S,2S)-2-hydroxycyclohexyl]-[1,2,4]triazolo[1,5-a]pyridine-8-carboxamide] |
| 474 | 67 | Cn1cc(-c2cc(F)c(Cc3cc(C(=O)N[C@H]4CCOC[C@@H]4O)c4nccn4c3)c(F)c2)cn1 [compound 49, 6-[[2,6-difluoro-4-(1-methylpyrazol-4-yl)phenyl]methyl]-N-[(3R,4S)-3-hydroxytetrahydropyran-4-yl]imidazo[1,2-a]pyridine-8-carboxamide] |
| 24.6 | 53 | Cc1c(Cc2ccc(-c3ccn(C)n3)cc2)cc(C(=O)N[C@H]2CCOC[C@@H]2O)c2nccn12 [compound 50, N-[(3R,4S)-3-hydroxytetrahydropyran-4-yl]-5-methyl-6-[[4-(1-methylpyrazol-3-yl)phenyl]methyl]imidazo[1,2-a]pyridine-8-carboxamide] |

— US20200131180A1, “POSITIVE ALLOSTERIC MODULATORS OF THE MUSCARINIC ACETYLCHOLINE RECEPTOR M1” (Vanderbilt University, priority 2018, published 2020)
